Measurements reported in ChEMBL document CHEMBL1201862, “PubChem BioAssay data set” (2004).
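Values below derive from 48-hour exposures of cells grown in 96-well plates, with endpoints linearly interpolated between the two concentrations bracketing the appropriate inhibition level. Abbreviation: GI50, concentration required for 50% inhibition of growth.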 Calls of active or inactive are those of the source. Cut-off read from the data, not from the text of the source: active = GI50 up to about 1.1 µM and inactive = higher.

Assays:
Assay in all cases: DTP human tumour cell line panel, 48 h
[1] = system: UO-31
[2] = system: IGROV-1
[3] = system: EKVX
[4] = system: CCRF-CEM
[5] = system: KM12
[6] = system: NCI-H23
[7] = system: HCC 2998
[8] = system: NCI-H460
[9] = system: KM-20L2
[10] = system: OVCAR-5
[11] = system: K562
[12] = system: HT-29
[13] = system: HOP-18
[14] = system: A498
[15] = system: HCT-116
[16] = system: SF-539
[17] = system: OVCAR-3
[18] = system: U-251
[19] = system: LXFL 529
[20] = system: MOLT-4
[21] = system: TK-10
[22] = system: SK-OV-3
[23] = system: HL-60
[24] = system: SF-295
[25] = system: SK-MEL-28
[26] = system: NCI-H522
[27] = system: UACC-257
[28] = system: DLD-1
[29] = system: SNB-19
[30] = system: DMS-273
[31] = system: RPMI-8226
[32] = system: SNB-75
[33] = system: SW-620
[34] = system: RXF 393
[35] = system: DMS-114
[36] = system: LOX IMVI
[37] = system: OVCAR-8
[38] = system: COLO 205
[39] = system: XF498
[40] = system: ACHN
[41] = system: M19-MEL
[42] = system: HOP-92
[43] = system: A549
[44] = system: SNB-78
[45] = system: SF-268
[46] = system: HOP-62
[47] = system: CAKI-1
[48] = system: UACC-62
[49] = system: Malme-3M
[50] = system: M14
[51] = system: NCI-H226
[52] = system: SN12C
[53] = system: SK-MEL-5
[54] = system: SK-MEL-2
[55] = system: OVCAR-4
[56] = system: 786-0

Measured: GI50

CC(c1ccccc1)/[N+]([O-])=C/c1ccccc1 (stereo not given)
inactive: [1] > 100 µM | [2] > 100 µM | [3] > 100 µM | [4] > 100 µM | [5] > 100 µM | [6] > 100 µM | [7] > 100 µM | [8] > 100 µM | [9] > 100 µM | [10] > 100 µM | [11] > 100 µM | [12] > 100 µM | [13] 34.9 µM | [14] > 100 µM | [15] > 100 µM | [16] > 100 µM | [17] > 100 µM | [18] > 100 µM | [19] > 100 µM | [20] > 100 µM | [21] > 100 µM | [22] > 100 µM | [23] > 100 µM | [24] > 100 µM | [25] > 100 µM | [26] > 100 µM | [27] > 100 µM | [28] > 100 µM | [29] > 100 µM | [30] > 100 µM | [31] > 100 µM | [32] > 100 µM | [33] > 100 µM | [34] > 100 µM | [35] > 100 µM | [36] > 100 µM | [37] > 100 µM | [38] > 100 µM | [39] > 100 µM | [40] > 100 µM | [41] > 100 µM | [42] > 100 µM | [43] > 100 µM | [44] > 100 µM | [45] > 100 µM | [46] > 100 µM

Cc1ccc(S(=O)(=O)NC(=O)NCCc2ccccc2)cc1
inactive: [47] > 100 µM | [1] 51.8 µM | [2] > 100 µM | [48] > 100 µM | [3] > 100 µM | [4] > 100 µM | [5] > 100 µM | [6] 76.7 µM | [7] > 100 µM | [8] > 100 µM | [9] > 100 µM | [10] > 100 µM | [11] 83.4 µM | [13] > 100 µM | [14] > 100 µM | [49] > 100 µM | [50] > 100 µM | [15] > 100 µM | [16] > 100 µM | [51] > 100 µM | [17] > 100 µM | [18] > 100 µM | [19] > 100 µM | [20] > 100 µM | [52] > 100 µM | [53] > 100 µM | [21] > 100 µM | [22] > 100 µM | [23] 74.1 µM | [24] > 100 µM | [25] > 100 µM | [26] 73.8 µM | [27] 25.9 µM | [28] > 100 µM | [29] > 100 µM | [31] > 100 µM | [32] 68.2 µM | [33] > 100 µM | [54] > 100 µM | [55] > 100 µM | [56] > 100 µM | [34] 77.6 µM | [35] 62.1 µM | [36] > 100 µM | [37] > 100 µM | [38] > 100 µM | [39] > 100 µM | [40] > 100 µM | [41] > 100 µM | [42] > 100 µM | [43] > 100 µM | [44] > 100 µM | [45] > 100 µM | [46] > 100 µM
